{
  "source": "patent US20230159527A1",
  "about": "“COMPOUNDS AS BCL-2 INHIBITORS” (Fochon Pharmaceuticals, Ltd., priority 2020, published 2023)",
  "type_in_all_cases": "cell-based",
  "key": {"[1]": {"system": "Toledo cells", "experiment": "Cell proliferation assay, Toledo cells (MTS, 72 h)", "conditions": "Homo sapiens, Toledo cells, MTS, read-out: Toledo IC50", "outline": "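IC50 was derived from 490 nm absorbance after a 2 h MTS step. Before that, compounds at 1.5–10000 nM final (nine points) acted on Toledo cells for 72 h at 37 °C, 5% CO2. Cells were seeded at 30000/well in 10% FBS RPMI-1640 and rested 4 h before dosing.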"}, "[2]": {"system": "RS4;11-BCL-2 G101V cells", "experiment": "Cell proliferation assay, engineered RS4;11 cells stably overexpressing BCL-2 G101V (MTS, 168 h)", "conditions": "Homo sapiens, RS4-11, 168 h, read-out: RS4, 11 BCL2- G101V", "outline": "(§1)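 Proliferation read-out: MTS for exactly 2 h, then absorbance at 490 nm, with IC50 derived from the fit. Before this, engineered RS4;11 lines (BCL-2 G101V, F104L; 5000 cells/well) were exposed 168 h at 37 °C to serially diluted compound, final 1.4–10000 nM.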"}, "[3]": {"system": "RS4;11-BCL-2 F104L cells", "experiment": "Cell proliferation assay, engineered RS4;11 cells stably overexpressing BCL-2 F104L (MTS, 168 h)", "conditions": "Homo sapiens, read-out: RS4, 11 BCL2-F104L", "outline": "as §1"}},
  "data": [
    {"smiles": "CCOc1nc2[nH]ccc2cc1Oc1cc(N2CCC3(CC2)CC(N2CCC[C@H]2c2ccccc2C(C)C)C3)ccc1C(=O)NS(=O)(=O)c1cc2c(c([N+](=O)[O-])c1)N[C@@H]([C@H]1CC[C@](C)(O)CC1)CO2", "note": "(single isomer, unassigned) [Example D-65, 2-((6-ethoxy-1H-pyrrolo[2,3-b]pyridin-5-yl)oxy)-N-(((5)-3-((1r,4S)-4-hydroxy-4-methylcyclohexyl)-5-nitro-3,4-dihydro-2H-benzo[b] [1,4]oxazin-7-yl)sulfonyl)-4-(2-((R or S)-2-(2-isopropylphenyl)pyrrolidin-1-yl)-7-azaspiro[3.5]nonan-7-yl)benzamide]", "values": [
      {"measurement": "IC50", "setting": "[1]", "value": 1, "unit": "nM"},
      {"measurement": "IC50", "setting": "[2]", "value": 1, "unit": "nM"},
      {"measurement": "IC50", "setting": "[3]", "value": 20, "unit": "nM"}
    ]},
    {"smiles": "COCCOc1nc2[nH]cc(F)c2cc1Oc1cc(N2CCC3(CC2)CC(N2CCC[C@H]2c2ccccc2C(C)C)C3)ccc1C(=O)NS(=O)(=O)c1cc2c(c([N+](=O)[O-])c1)N[C@@H]([C@H]1CC[C@](C)(O)CC1)CO2", "note": "(single isomer, unassigned) [Example D-71, 2-((3-fluoro-6-(2-methoxyethoxy)-1H-pyrrolo[2,3-b]pyridin-5-yl)oxy)-N-(((S)-3-((1r,4S)-4-hydroxy-4-methylcyclohexyl)-5-nitro-3,4-dihydro-2H-benzo[b][1,4]oxazin-7-yl)sulfonyl)-4-(2-((R or S)-2-(2-isopropylphenyl)pyrrolidin-1-yl)-7-azaspiro[3.5]nonan-7-yl)benzamide]", "values": [
      {"measurement": "IC50", "setting": "[1]", "value": 1, "unit": "nM"},
      {"measurement": "IC50", "setting": "[2]", "value": 13, "unit": "nM"},
      {"measurement": "IC50", "setting": "[3]", "value": 12, "unit": "nM"}
    ]},
    {"smiles": "CCOc1nc2[nH]cc(F)c2cc1Oc1cc(N2CCC3(CC2)CC(N2CCC[C@H]2c2ccccc2C(C)C)C3)ccc1C(=O)NS(=O)(=O)c1cc2c(c([N+](=O)[O-])c1)N[C@@H]([C@H]1CC[C@](C)(O)CC1)CO2", "note": "(single isomer, unassigned) [Example D-85, 2-((6-ethoxy-3-fluoro-1H-pyrrolo [2,3-b]pyridin-5-yl)oxy)-N-(((S)-3-((1r,4S)-4-hydroxy-4-methylcyclohexyl)-5-nitro-3,4-dihydro-2H-benzo[b][1,4]oxazin-7-yl)sulfonyl)-4-(2-((R or S)-2-(2-isopropylphenyl)pyrrolidin-1-yl)-7-azaspiro[3.5]nonan-7-yl)benzamide]", "values": [
      {"measurement": "IC50", "setting": "[1]", "value": 1, "unit": "nM"},
      {"measurement": "IC50", "setting": "[2]", "value": 28, "unit": "nM"},
      {"measurement": "IC50", "setting": "[3]", "value": 5, "unit": "nM"}
    ]},
    {"smiles": "CC(C)c1ccccc1[C@@H]1CCC[C@@H]1N1CC2(CCN(c3ccc(C(=O)NS(=O)(=O)c4ccc(NC[C@H]5CC[C@](C)(O)CC5)c([N+](=O)[O-])c4)c(Oc4cc5c(F)c[nH]c5nc4F)c3)CC2)C1", "note": "(single isomer, unassigned) [Example D-90, 2-((3,6-difluoro-1H-pyrrolo[2,3-b]pyridin-5-yl)oxy)-N-((4-((1r,4r)-4-hydroxy-4-methylcyclohexyl)methyl)amino)-3-nitrophenyl) sulfonyl)-4-(2-((1S,2S or 1R,2R)-2-(2-isopropylphenyl) cyclopentyl)-2,7-diazaspiro[3.5] nonan-7-yl)benzamide]", "values": [
      {"measurement": "IC50", "setting": "[1]", "value": 1, "unit": "nM"},
      {"measurement": "IC50", "setting": "[2]", "value": 5, "unit": "nM"},
      {"measurement": "IC50", "setting": "[3]", "value": 1, "unit": "nM"}
    ]},
    {"smiles": "COCCOc1nc2[nH]cc(F)c2cc1Oc1cc(N2CCC3(CC2)CN([C@H]2CCC[C@H]2c2ccccc2C(C)C)C3)ccc1C(=O)NS(=O)(=O)c1cc2c(c([N+](=O)[O-])c1)N[C@@H]([C@H]1CC[C@](C)(O)CC1)CO2", "note": "(single isomer, unassigned) [Example D-95, 2-((3-fluoro-6-(2-methoxyethoxy)-1H-pyrrolo[2,3-b]pyridin-5-yl)oxy)-N-(((S)-3-((1r,4S)-4-hydroxy-4-methylcyclohexyl)-5-nitro-3,4-dihydro-2H-benzo[b][1,4]oxazin-7-yl)sulfonyl)-4-(2-((1S,2S or 1R,2R)-2-(2-isopropylphenyl)cyclopentyl)-2,7-diazaspiro[3.5]nonan-7-yl)benzamide]", "values": [
      {"measurement": "IC50", "setting": "[1]", "value": 1, "unit": "nM"},
      {"measurement": "IC50", "setting": "[2]", "value": 3, "unit": "nM"},
      {"measurement": "IC50", "setting": "[3]", "value": 8, "unit": "nM"}
    ]},
    {"smiles": "CC(C)c1ccccc1[C@@H]1CCC[C@@H]1N1CC2(CCN(c3ccc(C(=O)NS(=O)(=O)c4cc5c(c([N+](=O)[O-])c4)N[C@@H]([C@H]4CC[C@](C)(O)CC4)CO5)c(Oc4cc5c(F)c[nH]c5nc4F)c3)CC2)C1", "note": "(single isomer, unassigned) [Example D-96, 2-((3,6-difluoro-1H-pyrrolo[2,3-b]pyridin-5-yl)oxy)-N-(((S)-3-((1r,4S)-4-hydroxy-4-methylcyclohexyl)-5-nitro-3,4-dihydro-2H-benzo[b][1,4]oxazin-7-yl)sulfonyl)-4-(2-((1S,2S or 1R,2R)-2-(2-isopropylphenyl)cyclopentyl)-2,7-diazaspiro[3.5]nonan-7-yl)benzamide]", "values": [
      {"measurement": "IC50", "setting": "[1]", "value": 1, "unit": "nM"},
      {"measurement": "IC50", "setting": "[2]", "value": 4, "unit": "nM"},
      {"measurement": "IC50", "setting": "[3]", "value": 1, "unit": "nM"}
    ]},
    {"smiles": "CCOc1nc2[nH]cc(F)c2cc1Oc1cc(N2CCC3(CC2)CN([C@H]2CCC[C@H]2c2ccccc2C(C)C)C3)ccc1C(=O)NS(=O)(=O)c1cc2c(c([N+](=O)[O-])c1)N[C@@H]([C@H]1CC[C@](C)(O)CC1)CO2", "note": "(single isomer, unassigned) [Example D-103, 2-((6-ethoxy-3-fluoro-1H-pyrrolo [2,3-b]pyridin-5-yl)oxy)-N-(((S)-3-((1r,4S)-4-hydroxy-4-methylcyclohexyl)-5-nitro-3,4-dihydro-2H-benzo[b][1,4]oxazin-7-yl)sulfonyl)-4-(2-((1S,2S or 1R,2R)-2-(2-isopropylphenyl)cyclopentyl)-2,7-diazaspiro[3.5]nonan-7-yl)benzamide]", "values": [
      {"measurement": "IC50", "setting": "[1]", "value": 1, "unit": "nM"},
      {"measurement": "IC50", "setting": "[2]", "value": 1, "unit": "nM"},
      {"measurement": "IC50", "setting": "[3]", "value": 1, "unit": "nM"}
    ]},
    {"smiles": "CC(C)c1ccccc1[C@@H]1CCC[C@@H]1N1CC2(CCN(c3ccc(C(=O)NS(=O)(=O)c4ccc(NC[C@H]5CC[C@](C)(O)CC5)c([N+](=O)[O-])c4)c(Oc4cc5c(F)c[nH]c5nc4Cl)c3)CC2)C1", "note": "(single isomer, unassigned) [Example D-113, 2-((6-chloro-3-fluoro-1H-pyrrolo [2,3-b]pyridin-5-yl)oxy)-N-((4-((((1r,4r)-4-hydroxy-4-methylcyclohexyl)methyl)amino)-3-nitrophenyl)sulfonyl)-4-(2-((1S,2S or 1R,2R)-2-(2-isopropylphenyl)cyclopentyl)-2,7-diazaspiro[3.5]nonan-7-yl)benzamide]", "values": [
      {"measurement": "IC50", "setting": "[1]", "value": 1, "unit": "nM"},
      {"measurement": "IC50", "setting": "[2]", "value": 19, "unit": "nM"},
      {"measurement": "IC50", "setting": "[3]", "value": 1, "unit": "nM"}
    ]},
    {"smiles": "CC(C)c1ccccc1[C@@H]1CCCN1C1CC2(CCN(c3ccc(C(=O)NS(=O)(=O)c4cc5c(c([N+](=O)[O-])c4)N[C@@H]([C@H]4CC[C@](C)(O)CC4)CO5)c(Oc4cc5cc[nH]c5nc4OC[C@H]4CCN4C)c3)CC2)C1", "note": "(single isomer, unassigned) [Example D-123, N-(((S)-3-((1r,4S)-4-hydroxy-4-methylcyclohexyl)-5-nitro-3,4-dihydro-2H-benzo[b][1,4]oxazin-7-yl)sulfonyl)-4-(2-((R or S)-2-(2-isopropylphenyl)pyrrolidin-1-yl)-7-azaspiro[3.5]nonan-7-yl)-2-((6-(((7)-1-methylazetidin-2-yl)methoxy)-1H-pyrrolo[2,3-b]pyridin-5-yl)oxy)benzamide]", "values": [
      {"measurement": "IC50", "setting": "[1]", "value": 1, "unit": "nM"},
      {"measurement": "IC50", "setting": "[2]", "value": 1, "unit": "nM"},
      {"measurement": "IC50", "setting": "[3]", "value": 11, "unit": "nM"}
    ]}
  ]
}
